Reference: BigSolDB 2.1

CC(C)(OOC(C)(C)c1ccccc1)c1ccccc1
solubility (mole fraction)
Details | 274.15 K | 278.15 K | 282.15 K | 286.15 K | 290.15 K | 294.15 K | 298.15 K | 302.15 K
in DMF | 0.152 | 0.196 | 0.246 | 0.305 | 0.365 | 0.44 | 0.518 | 0.619
in ethanol | 0.0152 | 0.0188 | 0.0236 | 0.0303 | 0.0418 | 0.0573 | 0.0851 | 0.142
in isopropanol | 0.0132 | 0.0168 | 0.0219 | 0.0291 | 0.0398 | 0.0567 | 0.0859 | 0.143
in methanol | 0.00668 | 0.00933 | 0.0118 | 0.0154 | 0.02 | 0.0283 | 0.0395 | 0.0602
in n-butanol | 0.0241 | 0.0317 | 0.0407 | 0.0541 | 0.07 | 0.0974 | 0.144 | 0.237
in n-propanol | 0.019 | 0.0253 | 0.0317 | 0.0425 | 0.0568 | 0.0783 | 0.118 | 0.194
in sec-butanol | 0.0161 | 0.0208 | 0.0275 | 0.036 | 0.0486 | 0.0724 | 0.107 | 0.183
